“And” between values parts separate entries of the source, which are not always exact repeats. Identical values can stand only once. “Also recorded” adds a separate entry of the source.
Key:
[1] = system: PSMA messenger RNA in LNCaP prostate cancer cell line; settings: LNCaP cells after exposure to DHT; cited from earlier work
[2] = molecular target: T1, ODC (Homo sapiens, UniProt P11926); settings: concentrations from 0.6 μM to 80 μM; three separate studies; cited from earlier work
T1 sequence (P11926 1-461): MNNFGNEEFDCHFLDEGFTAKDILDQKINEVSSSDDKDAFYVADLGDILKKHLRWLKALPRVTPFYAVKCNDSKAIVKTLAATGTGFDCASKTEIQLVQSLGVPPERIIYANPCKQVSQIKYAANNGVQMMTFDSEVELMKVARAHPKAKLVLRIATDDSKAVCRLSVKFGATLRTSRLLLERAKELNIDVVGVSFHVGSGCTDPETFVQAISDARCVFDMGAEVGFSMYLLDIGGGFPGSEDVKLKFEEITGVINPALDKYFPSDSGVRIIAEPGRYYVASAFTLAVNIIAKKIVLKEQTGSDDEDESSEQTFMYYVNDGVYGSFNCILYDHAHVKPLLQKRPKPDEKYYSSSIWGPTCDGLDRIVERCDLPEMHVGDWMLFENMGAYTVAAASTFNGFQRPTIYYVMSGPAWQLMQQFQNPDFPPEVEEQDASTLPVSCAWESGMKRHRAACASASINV

[3] = system: tumors harboring Ki-ras mutations; settings: AOM-treated rats; reduced from 90%; cited from earlier work
[4] = system: prostate cancer; settings: one year of Proscar; 1 of 25 men with no treatment; p=0.025; cited from earlier work
[5] = system: prostate tumor; settings: rat, in vivo, ip; cited from earlier work
[6] = system: human prostate polyamine levels and ODC activity; settings: cited from earlier work
[7] = system: cutaneous spermine; settings: ten percent DFMO cream; ten patients suffering from psoriasis; cited from earlier work
[8] = system: PSA; assay: Serum PSA in men taking oral DFMO; format: in vivo, human
Excerpt: (§1) This protocol was approved by the investigational review board of the University of California Irvine and the Long Beach Veterans Administration Medical Center. Men between the ages of 50 and 85, who were undergoing a trans-rectal prostate needle biopsy for either an elevated PSA or abnormal rectal exam, signed a written consent to undergo four additional core needle biopsies of the peripheral zone at the time of their, routine extant biopsy. The additional four biopsies were immediately frozen liquid nitrogen and stored in the minus 70-degree freezer. The […] biopsy was sent to Pathology for routine analysis. […] Patients were monitored for side effects using questionnaires and interview techniques. Coagulation parameters were carefully assessed prior to surgery. In the operating room just prior to the surgical procedure four trans-rectal core biopsies of the peripheral zone were taken and frozen. The pre and post DFMO specimens were sent together to Arizona on dry ice for histology and polyamine analysis. Radical prostatectomy specimens were staged according to the TMN updated 1997 staging system (American Joint Committee on Cancer 1997).

[9] = Side effects and coagulation parameters in men taking oral DFMO; format: in vivo, human
Excerpt: as §1

[10] = molecular target: T2, prostatic ODC (Rattus norvegicus, UniProt P09057); settings: cited from earlier work
T2 construct: from tissue; host or cells: rat prostate (animals treated in vivo with DFMO)
T2 sequence (P09057 1-461): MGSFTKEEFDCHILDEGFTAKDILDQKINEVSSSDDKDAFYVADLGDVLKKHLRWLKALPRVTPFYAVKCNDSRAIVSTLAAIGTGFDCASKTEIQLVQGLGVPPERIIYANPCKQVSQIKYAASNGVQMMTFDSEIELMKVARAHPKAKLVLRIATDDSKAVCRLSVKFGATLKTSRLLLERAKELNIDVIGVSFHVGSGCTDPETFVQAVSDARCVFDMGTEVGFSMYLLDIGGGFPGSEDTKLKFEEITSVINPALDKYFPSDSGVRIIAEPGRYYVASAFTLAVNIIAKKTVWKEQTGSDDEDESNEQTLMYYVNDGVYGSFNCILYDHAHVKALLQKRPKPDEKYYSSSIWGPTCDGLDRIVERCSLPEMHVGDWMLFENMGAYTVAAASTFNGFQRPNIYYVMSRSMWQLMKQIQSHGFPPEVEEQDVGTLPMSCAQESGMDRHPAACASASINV

[11] = system: polyamines (putrescine, spermidine, spermine) in the human prostate; assay: Prostate core biopsy polyamine content before and after 28 days of oral DFMO; format: in vivo; settings: oral DFMO 0.5 gm/m^2 for 28 days
Excerpt: This protocol was approved by the investigational review board of the University of California Irvine and the Long Beach Veterans Administration Medical Center. Men between the ages of 50 and 85, who were undergoing a trans-rectal prostate needle biopsy for either an elevated PSA or abnormal rectal exam, signed a written consent to undergo four additional core needle biopsies of the peripheral zone at the time of their, routine extant biopsy. The additional four biopsies were immediately frozen liquid nitrogen and stored in the minus 70-degree freezer. The […] biopsy was sent to Pathology for routine analysis. […] Patients were monitored for side effects using questionnaires and interview techniques. Coagulation parameters were carefully assessed prior to surgery. In the operating room just prior to the surgical procedure four trans-rectal core biopsies of the peripheral zone were taken and frozen. The pre and post DFMO specimens were sent together to Arizona on dry ice for histology and polyamine analysis. Radical prostatectomy specimens were staged according to the TMN updated 1997 staging system (American Joint Committee on Cancer 1997). To determine prostate core polyamine contents, cores were first thawed, washed in phosphate buffered saline (PBS) and weighted. Samples were then minced in 0.2 N perchloric acid and sonicated to disrupt cellular material. Samples were centrifuged at 2,000×g for 5 minutes to separate acid soluble and insoluble fractions. The acid soluble fraction was evaluated for polyamine contents, using reverse-phase, ion-pared high performance liquid chromatography (PHLC) methods, as described elsewhere ([…] et al. 1994; […] et al 1994; […] et al. 1998). Briefly, polyamines are separated on a C18 B Ondapak column, derivatized with […] separation and detected by absorption of the derivatized material at 750 nm. Mean, median, and range for polyamine levels are reported in nmol/mg protein. The limit of detection of our method is 0.01 nmol/mg. Histological Changes were assessed by bright field microscopy methods. Pre- and post DFMO polyamine values were compared using the Wilcoxon matched-pairs signed rank test. Thus, for each patient we were able to take into account both the magnitude and the direction of changes in polyamines due to DFMO.

[12] = system: polyamines in rat prostate; settings: two weeks of 100 mg/kg DFMO, cited from earlier work
[13] = system: matrilysin expression in LNCaP human prostate cancer derived cells; assay: IL-1β-induced matrilysin expression in LNCaP cells; format: cell-based
Excerpt: As indicated earlier, DFMO acts late in the tumor promotion stage of epithelial carcinogenesis.

[14] = system: mouse epidermis; settings: topically applied five percent solution of DFMO; cited from earlier work
[15] = system: prostate cancer; settings: oral fenretinide; 22 men at high risk; trial closed early; cited from earlier work
[16] = two weeks of DFMO 0.5 gm/m^2 orally
[17] = oral DFMO 0.5 gm/m^2, about 28 days

Structure (SMILES): C[C@]12CCC(=O)C[C@@H]1CC[C@@H]1[C@@H]2CC[C@]2(C)[C@@H](O)CC[C@@H]12 [5-α-dihydroxytestosterone]
- down-regulation of PSMA mRNA [1]: 8-10 fold

Structure (SMILES): NCCC[C@](N)(C(=O)O)C(F)F [L-DFMO]
- inhibition of ODC activity [2]: inhibitory

Structure (SMILES): CN1C(C(=O)Nc2ccccn2)=C(O)c2ccccc2S1(=O)=O [piroxicam]
- number of tumors harboring Ki-ras mutations [3]: 25%

Structure (SMILES): NCCC[C@@](N)(C(=O)O)C(F)F [D-DFMO]
- inhibition of ODC activity [2]: inhibitory

Structure (SMILES): CC(C)(C)NC(=O)[C@H]1CC[C@H]2[C@@H]3CC[C@H]4NC(=O)C=C[C@]4(C)[C@H]3CC[C@]12C [Proscar, finasteride]
- men with cancer diagnosed at one year follow up biopsy [4]: 8 of 27

Structure (SMILES): NCCC[C@](N)(C(=O)O)C(F)F [DFMO, alpha-difluoromethylornithine]
- systemic toxicity [5]: no systemic toxicity
- toxicity ([6]; fourteen men completed two weeks of DFMO): no toxicity
- ODC activity, DFMO vs placebo ([6]; two weeks of DFMO 0.5 gm/m^2): no differences
- mean putrescine level in prostate cores ([6]; two weeks of DFMO 0.5 gm/m^2, placebo 1.95, p=0.03): 1.43
- spermidine level, DFMO vs placebo [6, 16]: no differences; also recorded: failed to detect any reduction
- spermine level, DFMO vs placebo [6, 16]: no differences; also recorded: failed to detect any reduction
- improvement in psoriatic lesions [7]: marginal improvement
- reduction of cutaneous spermine levels [7]: sixty-six percent
- PSA change on DFMO, patients with malignant pathology ([8]; five patients, increase in patients 3,8,9): increased in 3 of 5
- PSA change on DFMO, patients with final benign pathology ([8]; four patients (1,4,5,7), pre-biopsy or pre-DFMO PSA vs PSA on DFMO): decreased in each patient
- Pre-op PSA ([8]; individual patients 1-9, drawn while on DFMO): 3.7 ng/ml and 7.5 ng/ml and 2.5 ng/ml and 1.4 ng/ml and 5 ng/ml and 2.3 ng/ml and 6.8 ng/ml and 35.5 ng/ml and 8.2* ng/ml
- bleeding time prior to surgery [9, 17]: not altered
- change in platelet counts or protime [9, 17]: no clinically significant change
- men reporting side effects ([9]; oral DFMO 0.5 gm/m^2, average 28.2 days, grade 0 to 1): four men
- prostatic ODC reduction compared to control ([10]; by 24 hrs, 100 mg/kg every 12 hrs i.p.): 50%
- sustained suppression of prostatic ODC activity, remaining activity ([10]; throughout the two week study): 50 % of baseline activity
- range of spermine level after DFMO ([11]; n=9): 3.24 to 25.58 nmol/mg
- spermidine average percent decrease from baseline ([11]; n=9, p=0.004): 73.6% and 74%
- spermine average decrease from baseline ([11]; n=9, p=0.004): 50.8% and 51%
- average level of spermine after DFMO ([11]; n=9, pre-DFMO average 29.14): 14.33 nmol/mg
- median level of spermine after DFMO ([11]; n=9, pre-DFMO median 28.85): 17.40 nmol/mg
- average level of spermidine after therapy ([11]; n=9, pretreatment average 1.21): 0.32 nmol/mg
- median level of spermidine after therapy ([11]; n=9, pretreatment median 0.81): 0.21 nmol/mg
- putrescine level after DFMO ([11]; prostate core biopsy, all nine men, detection limit 0.01 nmol/mg): undetectable
- putrescine average decrease from baseline ([11]; six men with pre-DFMO putrescine ≧0.01, p=0.031): 97.6% and 98%
- number of tumors harboring Ki-ras mutations [3]: 36%
- putrescine in rat prostate after DFMO ([12]; control 202±37): 4 ± 4 nmol/g
- spermine in rat prostate after DFMO ([12]; control 2968±293, no significant reduction): 2741±346
- spermidine in rat prostate after DFMO ([12]; control 7334±193): 1188±289
- interleukin-1β (IL-1β)-induced matrilysin expression [13]: suppresses
- spermine and spermidine levels [14]: not affected
- inhibition of ODC activity [2]: inhibitory

Structure (SMILES): CC1=C(/C=C/C(C)=C/C=C/C(C)=C/C(=O)Nc2ccc(O)cc2)C(C)(C)CCC1 [fenretinide]
- men with negative prestudy biopsies who developed malignancy while on study [15]: 8 men

Source: patent US20040162353A1 (priority 2000, published 2004)
